Experimental data published in the supplement of paper PMC10307832.

Legend:
Test in all cases: relative viability (nuclei count vs DMSO), 5 days (fraction); higher = more cells survive
DM3189 + Lapatinib = compound: C1CN(CCN1)C2=CC=C(C=C2)C3=CN4C(=C(C=N4)C5=CC=NC6=CC=CC=C56)N=C3 [DM3189] + CS(=O)(=O)CCNCc1ccc(-c2ccc3ncnc(Nc4ccc(OCc5cccc(F)c5)c(Cl)c4)c3c2)o1 [Lapatinib] (partner 2 µM)
Procedure, shortened: (§1)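 Lung cancer cell lines were seeded in 1536-well plates and dosed by pin tool the next day, with either a single drug or a fixed anchor-drug dose combined with five library-drug doses (not always all listed) spaced in √10 steps. Five days later, one step fixed the cells and stained their nuclei (final 0.05% Triton X-100, 1% formaldehyde, 1 ug/ml Hoechst), and nuclei were counted on 4× images. Relative viability is the nuclei count in treated wells divided by the count in vehicle wells, and each value is the median of duplicate plates.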

DM3189 + Phenformin = compound: C1CN(CCN1)C2=CC=C(C=C2)C3=CN4C(=C(C=N4)C5=CC=NC6=CC=CC=C56)N=C3 [DM3189] + N=C(N)NC(=N)NCCc1ccccc1 [Phenformin] (partner 250 µM)
Procedure, shortened: as §1

DM3189 + Dasatinib = compound: C1CN(CCN1)C2=CC=C(C=C2)C3=CN4C(=C(C=N4)C5=CC=NC6=CC=CC=C56)N=C3 [DM3189] + Cc1nc(Nc2ncc(C(=O)Nc3c(C)cccc3Cl)s2)cc(N2CCN(CCO)CC2)n1 [Dasatinib] (partner 0.075 µM)
Procedure, shortened: as §1

DM3189 + Pictilisib = compound: C1CN(CCN1)C2=CC=C(C=C2)C3=CN4C(=C(C=N4)C5=CC=NC6=CC=CC=C56)N=C3 [DM3189] + CS(=O)(=O)N1CCN(Cc2cc3nc(-c4cccc5[nH]ncc45)nc(N4CCOCC4)c3s2)CC1 [Pictilisib] (partner 1 µM)
Procedure, shortened: as §1

DM3189 + Alpelisib = compound: C1CN(CCN1)C2=CC=C(C=C2)C3=CN4C(=C(C=N4)C5=CC=NC6=CC=CC=C56)N=C3 [DM3189] + Cc1nc(NC(=O)N2CCC[C@H]2C(N)=O)sc1-c1ccnc(C(C)(C)C(F)(F)F)c1 [Alpelisib] (partner 2 µM)
Procedure, shortened: as §1

Cell Line	relative viability (DM3189 + Lapatinib; first compound 0.08 µM)	relative viability (DM3189 + Lapatinib; first compound 0.253 µM)	relative viability (DM3189 + Lapatinib; first compound 0.8 µM)	relative viability (DM3189 + Lapatinib; first compound 2.53 µM)	relative viability (DM3189 + Phenformin; first compound 0.08 µM)	relative viability (DM3189 + Phenformin; first compound 0.253 µM)	relative viability (DM3189 + Phenformin; first compound 0.8 µM)	relative viability (DM3189 + Phenformin; first compound 2.53 µM)	relative viability (DM3189 + Dasatinib; first compound 0.08 µM)	relative viability (DM3189 + Dasatinib; first compound 0.253 µM)	relative viability (DM3189 + Dasatinib; first compound 0.8 µM)	relative viability (DM3189 + Dasatinib; first compound 2.53 µM)	relative viability (DM3189 + Pictilisib; first compound 0.08 µM)	relative viability (DM3189 + Pictilisib; first compound 0.253 µM)	relative viability (DM3189 + Pictilisib; first compound 0.8 µM)	relative viability (DM3189 + Pictilisib; first compound 2.53 µM)	relative viability (DM3189 + Alpelisib; first compound 0.08 µM)	relative viability (DM3189 + Alpelisib; first compound 0.253 µM)	relative viability (DM3189 + Alpelisib; first compound 0.8 µM)	relative viability (DM3189 + Alpelisib; first compound 2.53 µM)
201T	1.06	1.03	0.998	1.03	0.482	0.429	0.388	0.431	0.589	0.543	0.385	0.557	0.766	0.73	0.515	0.702	1.05	1.02	1	1.05
A549	0.916	1.01	1.01	1	0.151	0.162	0.206	0.136	–	–	–	–	0.495	0.481	0.48	0.357	0.892	0.806	0.812	0.956
A-427	1.08	1.03	0.983	0.929	0.344	0.297	0.284	0.227	0.765	0.78	0.684	0.732	0.866	0.677	0.617	0.865	1.11	1.04	1.01	1.09
ABC-1	1.3	1.06	–	0.931	0.256	0.233	0.216	0.176	0.607	0.559	0.448	0.423	0.838	0.636	0.757	0.631	0.864	1.07	1.02	0.925
BEN	0.707	0.699	0.703	0.708	0.237	0.312	0.268	0.287	0.314	0.295	0.319	0.33	0.553	0.601	0.617	0.581	0.917	1	1.03	0.934
CAL-12T	0.623	0.675	0.616	0.947	0.588	0.571	0.526	0.703	0.546	0.469	0.487	0.571	0.43	0.321	0.575	0.544	1.42	1.14	1.41	1.43
COR-L23	1.08	0.962	0.514	0.743	0.472	0.439	0.402	0.408	0.543	0.525	0.458	0.525	0.71	0.668	0.485	0.627	0.749	0.634	0.645	0.636
COR-L 105	0.432	0.362	0.312	0.281	0.534	0.53	0.433	0.297	0.427	0.449	0.348	0.327	0.52	0.398	0.361	0.275	1.17	1.16	1.01	1.26
ChaGo-K-1	–	–	–	–	0.53	0.467	0.455	0.432	0.734	0.563	0.561	0.535	0.756	0.67	0.808	0.584	–	–	–	–
EKVX	0.201	0.183	0.228	0.245	0.251	0.224	0.218	0.242	0.542	0.473	0.457	0.518	0.483	0.429	0.413	0.446	0.944	0.77	0.807	0.869
HCC-44	1.13	0.743	0.792	1.02	0.218	0.155	0.178	0.153	–	–	–	–	0.815	0.615	0.472	0.752	0.874	0.942	0.631	0.757
IA-LM	1.09	–	0.855	1.02	–	–	–	–	–	–	–	–	0.355	0.353	0.426	0.566	1.24	0.581	0.963	1.31
LCLC-103H	–	–	–	–	0.357	0.315	0.286	0.304	0.607	0.457	0.393	0.339	0.737	0.618	0.558	0.622	0.994	0.979	0.912	0.975
NCI-H441	–	–	–	–	0.825	0.959	0.794	0.738	0.69	0.581	0.625	0.513	0.51	0.563	0.42	0.409	0.877	0.595	0.837	0.467
NCI-H522	–	–	–	–	0.675	0.591	0.592	0.617	1.04	0.929	0.838	0.8	–	–	–	–	–	–	–	–
NCI-H1650	0.838	0.806	0.71	0.777	0.5	0.347	0.387	0.354	0.333	0.391	0.304	0.316	0.773	0.582	0.526	0.477	–	–	–	–
NCI-H1703	1.2	1.15	1.17	1.14	–	–	–	–	–	–	–	–	0.28	0.205	0.257	0.257	0.389	0.366	0.384	0.285
SW 900	–	–	–	–	0.599	0.465	0.535	0.568	0.733	0.373	0.449	0.567	–	–	–	–	–	–	–	–
